# Reference: US20150342954A1, “2-BENZYL, 3-(PYRIMIDIN-2-YL) SUBSTITUTED PYRAZOLES USEFUL AS SGC STIMULATORS” (IRONWOOD PHARMACEUTICALS, INC., priority 2011, published 2015)
# Read-outs that look alike come from different tables or passages of the source.
# Legend:
# [1] = tested on: lambs with acute pulmonary hypertension; details: cited from earlier work; for pulmonary vasodilation / effect on mean arterial pressure / transpulmonary cGMP release / systemic arterial oxygenation: inhaled microparticles, awake lambs, U-46619 infusion; for pulmonary vasodilation: mean pulmonary arterial pressure 35 mm Hg
# [2] = molecular target: T1, soluble guanylate cyclase (sGC) (Homo sapiens, UniProt Q02108+Q02153); assay: sGC-HEK-cGMP assay (run with SNP incubation); format: cell-based; details: for EC50: in the presence of 10 μM SNP
# T1 construct: endogenously expressing soluble guanylate cyclase (sGC); endogenous in cells; host or cells: HEK293
# T1 sequence (Q02153 1-619): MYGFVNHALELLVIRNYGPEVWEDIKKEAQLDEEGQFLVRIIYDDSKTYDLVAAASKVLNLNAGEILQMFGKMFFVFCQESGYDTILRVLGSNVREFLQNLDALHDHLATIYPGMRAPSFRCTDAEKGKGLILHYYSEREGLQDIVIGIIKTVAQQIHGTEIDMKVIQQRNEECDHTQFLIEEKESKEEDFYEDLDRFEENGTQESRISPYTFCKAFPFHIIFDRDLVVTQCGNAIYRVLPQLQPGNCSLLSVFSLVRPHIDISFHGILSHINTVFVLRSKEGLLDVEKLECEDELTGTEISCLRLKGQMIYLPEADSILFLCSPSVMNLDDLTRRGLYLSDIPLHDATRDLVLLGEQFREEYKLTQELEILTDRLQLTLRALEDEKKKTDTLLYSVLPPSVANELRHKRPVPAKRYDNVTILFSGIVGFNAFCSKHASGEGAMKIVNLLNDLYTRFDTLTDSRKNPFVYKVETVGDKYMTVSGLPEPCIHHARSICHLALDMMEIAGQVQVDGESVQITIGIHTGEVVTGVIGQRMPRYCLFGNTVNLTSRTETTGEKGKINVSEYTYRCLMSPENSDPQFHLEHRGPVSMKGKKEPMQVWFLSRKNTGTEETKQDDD
# T1 sequence (Q02108 1-690): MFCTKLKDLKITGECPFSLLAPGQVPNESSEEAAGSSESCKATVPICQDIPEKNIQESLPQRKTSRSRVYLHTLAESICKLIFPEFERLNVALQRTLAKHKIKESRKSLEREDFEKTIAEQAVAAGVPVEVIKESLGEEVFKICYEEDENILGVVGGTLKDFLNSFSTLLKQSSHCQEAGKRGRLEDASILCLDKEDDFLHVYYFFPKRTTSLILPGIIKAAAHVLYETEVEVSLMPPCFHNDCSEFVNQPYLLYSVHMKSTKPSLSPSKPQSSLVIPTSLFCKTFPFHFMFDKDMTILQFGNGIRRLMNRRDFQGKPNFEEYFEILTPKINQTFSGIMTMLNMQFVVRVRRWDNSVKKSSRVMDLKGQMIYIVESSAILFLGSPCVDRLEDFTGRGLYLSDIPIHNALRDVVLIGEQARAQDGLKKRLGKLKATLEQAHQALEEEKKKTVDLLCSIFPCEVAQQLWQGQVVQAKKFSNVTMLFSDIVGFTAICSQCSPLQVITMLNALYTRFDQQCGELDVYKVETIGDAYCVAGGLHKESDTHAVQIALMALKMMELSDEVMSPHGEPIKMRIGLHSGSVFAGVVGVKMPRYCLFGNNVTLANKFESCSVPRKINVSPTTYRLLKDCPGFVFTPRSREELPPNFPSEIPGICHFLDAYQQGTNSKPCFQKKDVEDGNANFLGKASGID
# Method in brief: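 HEK293 cells with endogenous sGC were pre-treated 15 min at 37 °C with 0.5 mM IBMX, then exposed to test compound plus sodium nitroprusside for 10 min at 37 °C. Cells were lysed in 0.1 M HCl (4 °C, 30 min), and cGMP was quantified by LC/MS against a standard curve. EC50 values came from concentration-response curves.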
# Thoracic aortic rings = assay: Alternative thoracic aortic rings assay (Example 5; original resting tension as 100% inhibition); details: rat thoracic aortic rings contracted with phenylephrine
# Protocol: Thoracic aortic rings were dissected from anesthetized (isoflurane) male Sprague-Dawley rats weighing 275-299 g. Tissues were immediately transferred to ice-cold Krebs-Henseleit solution, which had been aerated with 95% 02 and 5% CO2 for 30 minutes. Following removal of connective tissue, aortic sections were cut into 4 rings (˜2 mm each) and suspended on 2 L-shaped hooks, with one hook fixed at the bottom of the tissue bath (Schuler Organ Bath, Harvard Apparatus) and the other connected to a force transducer (F30 Force Transducer, Harvard Apparatus). Baths contained Krebs Henseleit solution (10 mL) heated to 37° C. and aerated with 95% 02 and 5% CO2. Rings were brought to an initial tension of 0.3-0.5 g and gradually raised to a resting tension of 1.0 g over 60 minutes. Rings were rinsed with Krebs Henseleit solution (heated to 37° C. and aerated with 95% 02 and 5% CO2) at 15 minute intervals until a stable baseline was obtained. Rings were considered to be stable after a resting tension of 1.0 g was maintained (for approximately 10 minutes) without need for adjustment. Rings were then contracted with 100 ng/mL phenylephrine by adding 100 μL of a 10 μg/mL phenylephrine stock solution. Tissues achieving a stable contraction were then treated in a cumulative, dose dependent manner with test compounds prepared in dimethylsulfoxide (DMSO). In some cases, tissues were rinsed three times over a 5 minute period with Krebs-Heinseleit's solution (heated to 37° C. and aerated with 95% 02 and 5% CO2), allowed to stabilize at baseline, and then used for characterization of other test articles or DMSO effects. All data were collected using the HSE-ACAD software provided by Harvard Apparatus. […] EC50 values were calculated from concentration-response curves generated with GraphPad Prism Software.
# Biological Activity Measurement by the Thoracic Aortic Rings Assay
# The biological data for some of a compound of Table I, in comparison with the known compound, BAY 41-2272, as the reference compound, determined by the thoracic aorta ring assay of Example 5 are presented in Table 6 below.
# [3] = tested on: Guinea pig tracheal smooth muscle (GPTSM); assay: Electrical field stimulated guinea pig tracheal smooth muscle in vitro (ex vivo) model of bronchodilation; details: Cavia porcellus; guinea pig tracheal strips, sub-maximal EFS; 95% CI 0.78-0.94; read-out: IC50, inhibition of EFS-induced tracheal smooth muscle contraction
# Excerpt: Electrical Field Stimulated Guinea Pig Tracheal Smooth Muscle In Vitro (Ex Vivo) Model for the Assessment of Bronchodilation.
# It is possible to assess the bronchodilating effects of sGC stimulators by using the system described below. This system allowed us to determine potency, efficacy and duration of action of several sGC stimulators, as well as to assess potential side effects such as blood pressure, or heart rate changes. […]
# On each experimental day, a guinea pig was killed by exposure to a rising concentration of CO2 and the trachea removed. […] Tissues were washed with Kreb's buffer and stimulated using the previously determined sub-maximal voltage for 1 hour to establish a stable baseline contraction prior to assessment of compound activity.
# A cumulative dose response curve (DRC) to each test substance was then performed and changes in smooth muscle contraction measured. The effect of each test substance in each experiment was expressed as a percentage inhibition of the baseline contraction, normalized to the relevant vehicle controls. […] The data from all three experiments was pooled, the DRC plotted, and the test substance potency and efficacy determined.
SMILES,pulmonary vasodilation [1],effect on mean arterial pressure [1],transpulmonary cGMP release [1],systemic arterial oxygenation [1],further results
Nc1nc(-c2nn(Cc3ccccc3F)c3ncccc23)ncc1C1CC1 [BAY 41-2272],dose dependent pulmonary vasodilation,without significant effect on mean arterial pressure,increased transpulmonary cGMP release,–,–
Nc1nc(-c2nn(Cc3ccccc3F)c3ncccc23)nc(N)c1N1CCOCC1 [BAY 41-8543],dose dependent pulmonary vasodilation,without significant effect on mean arterial pressure,increased transpulmonary cGMP release,increased systemic arterial oxygenation,"magnitude and duration of pulmonary vasodilation induced by iNO ([1]; after inhaling the microparticles, lambs): augmented"
O=C(O)CCCCN(CCc1ccccc1OCc1ccc(CCc2ccccc2)cc1)Cc1ccc(C(=O)O)cc1 [BAY 58-2667],dose dependent pulmonary vasodilation,without significant effect on mean arterial pressure,increased transpulmonary cGMP release,increased systemic arterial oxygenation,"pulmonary vasodilation and transpulmonary cGMP release after treatment with ODQ ([1]; inhaled microparticles after intravenous ODQ, lambs): greatly enhanced"
"N#CC1(C(=O)Nc2cnc(-c3cc(-c4ncco4)n(Cc4ccccc4F)n3)nc2N)CC1 [Compound 47, N-(4-amino-2-(1-(2-fluorobenzyl)-5-(oxazol-2-yl)-1H-pyrazol-3-yl)pyrimidin-5-yl)-1-cyanocyclopropanecarboxamide]",–,–,–,–,"Emax ([2]; Table 3A, top of concentration-response curve not fitted to 100%, 10 μM SNP, 100% = 30 μM BAY 41-2272 with 10 μM SNP, read-out: HEK assay Emax-unconstrained (Percent)): 100 to 120%; HEK MEC-10 ([2]; concentration that would elicit 10% of the Emax in the presence of 10 μM SNP, Table 3D): B (0.01 to <0.1 μM); EC50 ([2]; Table 3D, read-out: HEK assay EC50): < 20 µM; EC50 ([2]; top of concentration-response curve not fitted to 100%, Table 3D, read-out: HEK assay EC50-unconstrained): 0.01 to 0.5 µM; Aortic Ring Percent Relaxation at 1 μM (Thoracic aortic rings; compound at 1 μM): E (60 or <80%); Aortic Ring Percent Relaxation at 3 μM (Thoracic aortic rings; compound at 3 μM): F (80 to <100%); Aortic Ring Percent Relaxation at 10 μM (Thoracic aortic rings; compound at 10 μM): G (100 to <120%); EC50 (Thoracic aortic rings; read-out: Aortic Ring EC50): < 2 µM"
CC(C)[N+]1(C)[C@@H]2CC[C@H]1C[C@@H](OC(=O)C(CO)c1ccccc1)C2 (stereo partly shown) [Ipratropium bromide],–,–,–,–,IC50 [3]: 0.00086 µM
